Here are results for 2 compounds from ChEMBL document CHEMBL4421717, “Antagonists and agonists of bitter taste receptors and uses thereof” (2012).

What all share (assay type): functional, cell-based
The target of assay [1] is T1, Taste receptor type 2 member 14 (Homo sapiens) (UniProt Q9NYV8).
T1 sequence (whole entry): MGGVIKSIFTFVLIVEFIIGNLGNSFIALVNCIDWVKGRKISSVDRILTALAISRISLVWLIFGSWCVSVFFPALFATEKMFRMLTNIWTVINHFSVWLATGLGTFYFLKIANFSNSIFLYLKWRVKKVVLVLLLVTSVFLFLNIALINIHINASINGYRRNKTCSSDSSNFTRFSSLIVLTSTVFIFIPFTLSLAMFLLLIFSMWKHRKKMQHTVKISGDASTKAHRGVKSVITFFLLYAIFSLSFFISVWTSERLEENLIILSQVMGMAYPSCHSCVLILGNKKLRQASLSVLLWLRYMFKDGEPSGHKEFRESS
The assay is described as follows: Activity at recombinant human N-terminal rat ST3 receptor-fused TAS2R14 expressed in HEK293T cells co-expressing Galpha16gust44 assessed as effect on aristolochic acids-induced intracellular calcium level at 100 uM by FLIPR assay. Background: Calcium flux is commonly read through the fluorescence of an indicator in the cells.

The target in assay [2] is T2, Taste receptor type 2 member 20 (Homo sapiens) (UniProt P59543).
T2 sequence (whole entry): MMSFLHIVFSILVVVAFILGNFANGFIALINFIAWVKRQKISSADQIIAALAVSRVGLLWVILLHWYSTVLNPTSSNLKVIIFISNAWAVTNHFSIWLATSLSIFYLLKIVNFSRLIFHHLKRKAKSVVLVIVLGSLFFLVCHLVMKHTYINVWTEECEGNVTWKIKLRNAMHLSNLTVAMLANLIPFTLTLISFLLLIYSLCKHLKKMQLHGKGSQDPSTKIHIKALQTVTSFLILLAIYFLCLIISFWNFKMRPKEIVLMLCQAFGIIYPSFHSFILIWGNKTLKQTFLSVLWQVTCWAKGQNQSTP
The assay is described as follows: Activity at recombinant human N-terminal rat ST3 receptor-fused TAS2R49 expressed in HEK293T cells co-expressing Galpha16gust44 assessed as effect on cromolyn-induced intracellular calcium level at 100 uM by FLIPR assay.

Assay [3] has as its target T3, Taste receptor type 2 member 3 (Homo sapiens) (UniProt Q9NYW6).
T3 sequence (whole entry): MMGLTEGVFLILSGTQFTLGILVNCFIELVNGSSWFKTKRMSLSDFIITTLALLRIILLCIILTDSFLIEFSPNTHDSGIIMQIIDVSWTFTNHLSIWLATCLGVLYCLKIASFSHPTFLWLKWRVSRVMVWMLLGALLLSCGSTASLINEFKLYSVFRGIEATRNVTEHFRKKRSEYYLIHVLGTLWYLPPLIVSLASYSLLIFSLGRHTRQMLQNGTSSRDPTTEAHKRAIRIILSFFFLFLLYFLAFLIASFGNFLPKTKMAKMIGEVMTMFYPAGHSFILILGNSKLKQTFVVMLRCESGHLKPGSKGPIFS
The assay is described as follows: Activity at recombinant human N-terminal rat ST3 receptor-fused TAS2R3 expressed in HEK293T cells co-expressing Galpha16gust44 assessed as effect on chloroquine-induced intracellular calcium level at 100 uM by FLIPR assay.

Assay [4] has as its target T4, Taste receptor type 2 member 4 (Homo sapiens) (UniProt Q9NYW5).
T4 sequence (whole entry): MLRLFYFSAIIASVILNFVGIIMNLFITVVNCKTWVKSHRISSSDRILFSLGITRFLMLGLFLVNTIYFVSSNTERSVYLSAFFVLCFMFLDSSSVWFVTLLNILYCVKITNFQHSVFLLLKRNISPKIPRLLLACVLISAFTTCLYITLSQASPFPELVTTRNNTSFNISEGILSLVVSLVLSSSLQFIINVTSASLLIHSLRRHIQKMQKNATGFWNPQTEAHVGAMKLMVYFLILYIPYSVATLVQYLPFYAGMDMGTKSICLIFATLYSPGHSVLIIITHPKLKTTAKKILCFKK
The assay is described as follows: Activity at recombinant human N-terminal rat ST3 receptor-fused TAS2R4 expressed in HEK293T cells co-expressing Galpha16gust44 assessed as effect on colchicine-induced intracellular calcium level at 100 uM by FLIPR assay.

Assay [5] concerns the target T5, Taste receptor type 2 member 46 (Homo sapiens, UniProt P59540).
T5 sequence (P59540 whole entry): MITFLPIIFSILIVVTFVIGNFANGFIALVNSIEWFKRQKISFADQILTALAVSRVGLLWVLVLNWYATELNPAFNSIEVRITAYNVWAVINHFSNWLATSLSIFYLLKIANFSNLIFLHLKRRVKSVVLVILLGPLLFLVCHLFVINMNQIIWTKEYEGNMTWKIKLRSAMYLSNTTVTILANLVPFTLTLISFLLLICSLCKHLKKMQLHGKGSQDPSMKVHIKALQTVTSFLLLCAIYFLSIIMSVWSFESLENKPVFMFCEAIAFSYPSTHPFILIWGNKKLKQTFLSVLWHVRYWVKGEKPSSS
The assay is described as follows: Antagonist activity at recombinant human N-terminal rat ST3 receptor-fused TAS2R46 expressed in HEK293T cells co-expressing Galpha16gust44 assessed as inhibition of 300 uM denatonium benzoate-induced intracellular calcium level 100 uM by FLIPR assay.

Assay [6] concerns the target T6, Taste receptor type 2 member 30 (Homo sapiens) (UniProt P59541).
T6 sequence (whole entry): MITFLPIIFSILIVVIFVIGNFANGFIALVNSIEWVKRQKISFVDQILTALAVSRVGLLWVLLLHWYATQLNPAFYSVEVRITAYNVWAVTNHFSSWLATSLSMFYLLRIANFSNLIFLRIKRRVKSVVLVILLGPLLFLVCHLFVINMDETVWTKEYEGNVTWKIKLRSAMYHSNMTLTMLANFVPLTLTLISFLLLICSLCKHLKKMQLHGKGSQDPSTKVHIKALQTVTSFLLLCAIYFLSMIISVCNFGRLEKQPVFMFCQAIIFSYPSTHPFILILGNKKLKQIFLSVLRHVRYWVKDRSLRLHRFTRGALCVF
The assay is described as follows: Antagonist activity at recombinant human N-terminal rat ST3 receptor-fused TAS2R47 expressed in HEK293T cells co-expressing Galpha16gust44 assessed as inhibition of brucine-induced intracellular calcium level at 100 uM by FLIPR assay.

Assay [7] has as its target Taste receptor type 2 member 5 (Homo sapiens) (UniProt Q9NYW4). The assay is described as follows: Agonist activity at recombinant human N-terminal rat ST3 receptor-fused TAS2R5 expressed in HEK293T cells co-expressing Galpha16gust44 assessed as effect on intracellular calcium level at 100 uM by FLIPR assay.
Assay [8] deals with Taste receptor type 2 member 41 (Homo sapiens) (UniProt P59536). Nature of the assay: Agonist activity at recombinant human N-terminal rat ST3 receptor-fused TAS2R41 expressed in HEK293T cells co-expressing Galpha16gust44 assessed as effect on intracellular calcium level at 100 uM by FLIPR assay.
For assay [9], the target named is T4, Taste receptor type 2 member 4 (Homo sapiens). Nature of the assay: Agonist activity at recombinant human N-terminal rat ST3 receptor-fused TAS2R4 expressed in HEK293T cells co-expressing Galpha16gust44 assessed as effect on intracellular calcium level at 100 uM by FLIPR assay.
Assay [10] deals with T6, Taste receptor type 2 member 30 (Homo sapiens). The assay is described as follows: Agonist activity at recombinant human N-terminal rat ST3 receptor-fused TAS2R47 expressed in HEK293T cells co-expressing Galpha16gust44 assessed as effect on intracellular calcium level at 100 uM by FLIPR assay.

Each structure is given as a SMILES string. pIC50: −log10 of the molar value. The source made the active and inactive calls. The calls are words filed in the database; no cut-off is given here.

Sequence of Taste receptor type 2 member 5 (Homo sapiens) (Q9NYW4 whole entry, the tested form may be a part): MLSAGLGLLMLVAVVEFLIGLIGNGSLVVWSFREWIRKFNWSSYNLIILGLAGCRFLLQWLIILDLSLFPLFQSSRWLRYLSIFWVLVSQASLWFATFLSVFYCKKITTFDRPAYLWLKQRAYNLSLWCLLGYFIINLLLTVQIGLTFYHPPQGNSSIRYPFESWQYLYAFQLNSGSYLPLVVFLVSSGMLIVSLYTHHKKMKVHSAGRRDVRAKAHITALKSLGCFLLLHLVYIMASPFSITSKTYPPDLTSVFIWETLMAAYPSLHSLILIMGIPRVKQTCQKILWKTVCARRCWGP
Sequence of Taste receptor type 2 member 41 (Homo sapiens) (P59536 whole entry, the tested form may be a part): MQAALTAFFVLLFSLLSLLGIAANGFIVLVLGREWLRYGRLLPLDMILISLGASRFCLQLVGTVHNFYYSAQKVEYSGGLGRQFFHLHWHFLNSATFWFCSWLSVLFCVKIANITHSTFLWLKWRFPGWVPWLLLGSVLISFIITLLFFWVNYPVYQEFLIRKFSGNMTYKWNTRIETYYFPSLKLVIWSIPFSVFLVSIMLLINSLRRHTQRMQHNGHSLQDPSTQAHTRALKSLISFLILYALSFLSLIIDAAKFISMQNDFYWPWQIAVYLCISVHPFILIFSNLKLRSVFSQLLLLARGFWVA

Take `C/C1=C\C[C@H](O)[C@@H](C)C[C@H]2OC(=O)[C@@H](C)C2CC1` (stereo not given in full): the outcome in [1], in assay [2], in assay [3] and in assay [4] was inactive. Moreover, in assay [5], the pIC50 (in general, −log10 of the IC50, conventionally taken in molar units) was 4.29. In assay [6], the inhibition (as a rule, how much of the control response was suppressed) was 100%.
`C/C1=C\C[C@H](O)/C(C)=C/[C@H]2OC(=O)[C@@H](C)C2CC1` (stereo not given in full): the outcome in [7], in [8], in assay [1], in [2], in assay [3] and in assay [10] was inactive. For the same compound, in [4], the result was inactive. The outcome in assay [9] was Active. Also, the inhibition entry in assay [6] is “Active”.
